Read-outs that look alike come from different tables or passages of the source.
Tests used:
OAT1 = OAT1 (Homo sapiens, UniProt Q4U2R8); test: In vitro transporter studies: OAT1; format: in vitro ADME
[1] = Phase 1 study of a single oral dose of voxelotor in subjects with hepatic impairment: whole blood and plasma PK; format: in vivo, human; conditions: human; for half-life: read-out: t1/2, mean (converted); for Vd/F: read-out: Vz/F, GM (converted); for Tmax: read-out: tmax, median (converted)
Protocol: A Phase 1, open-label study was performed to characterize pharmacokinetics (PK) and safety of a single oral dose of voxelotor in subjects with hepatic impairment. The study was to assess the effects of mild, moderate, or severe hepatic impairment on the PK of a single oral dose of voxelotor, to evaluate the safety and tolerability of a single oral dose of voxelotor in subjects with mild, moderate, or severe hepatic impairment, as well as to establish potential dose adjustment guidance based upon the degree of hepatic insufficiency. […] This study was designed to assess the effects of mild, moderate, or severe hepatic impairment on the PK of a single oral dose of voxelotor. Routine safety assessments (AE monitoring, vital signs, physical examinations, clinical laboratory tests, and ECGs) were performed. Eligible subjects received a single oral dose of voxelotor 1500 mg (5×300-mg capsules) on Day 1 (for normal hepatic function, mild and moderate hepatic impairment). […] No food was allowed for at least 4 hours postdose. No water or any type of liquid was allowed for 1 hour before dosing through 1-hour postdose with the exception of water consumed for dosing. Adverse events and concomitant medication use were monitored throughout the study. Safety assessments, including physical examinations, vital signs assessments, 12-lead ECGs, and clinical laboratory tests, were performed. Whole blood and plasma concentrations of voxelotor were determined using validated assays. […] Louis, Mo.) and actual sampling times. The following PK parameters were determined. To assess the effect of hepatic impairment on the PK of voxelotor, a linear mixed-effect model was fitted to the log-transformed values of whole blood and plasma Cmax, AUCt, and AUCinf. The model included hepatic impairment group as a fixed effect and age and weight as covariates. Point estimates and 90% CIs for hepatic function group differences (mild, moderate, and severe hepatically-impaired subjects [test] versus the normal hepatic function subjects [control]) on the log scale were exponentiated to obtain estimates for GM ratios on the original scale. Voxelotor whole blood and plasma concentrations were measured using a validated liquid chromatography-mass spectrometry method. The lower limit of assay quantitation for voxelotor was 10.0 ng/mL for whole blood and 5.00 ng/mL in plasma.

[2] = plasma, po, 600 mg, plasma, severe hepatic impairment, 600 mg single oral dose
[3] = plasma, po, 1500 mg, plasma, mild hepatic impairment, 1500 mg single oral dose
[4] = plasma, po, 1500 mg, plasma, moderate hepatic impairment, 1500 mg single oral dose
[5] = plasma, po, 1500 mg, plasma, normal hepatic function, 1500 mg single oral dose

Sequence of OAT1 (Q4U2R8 whole entry): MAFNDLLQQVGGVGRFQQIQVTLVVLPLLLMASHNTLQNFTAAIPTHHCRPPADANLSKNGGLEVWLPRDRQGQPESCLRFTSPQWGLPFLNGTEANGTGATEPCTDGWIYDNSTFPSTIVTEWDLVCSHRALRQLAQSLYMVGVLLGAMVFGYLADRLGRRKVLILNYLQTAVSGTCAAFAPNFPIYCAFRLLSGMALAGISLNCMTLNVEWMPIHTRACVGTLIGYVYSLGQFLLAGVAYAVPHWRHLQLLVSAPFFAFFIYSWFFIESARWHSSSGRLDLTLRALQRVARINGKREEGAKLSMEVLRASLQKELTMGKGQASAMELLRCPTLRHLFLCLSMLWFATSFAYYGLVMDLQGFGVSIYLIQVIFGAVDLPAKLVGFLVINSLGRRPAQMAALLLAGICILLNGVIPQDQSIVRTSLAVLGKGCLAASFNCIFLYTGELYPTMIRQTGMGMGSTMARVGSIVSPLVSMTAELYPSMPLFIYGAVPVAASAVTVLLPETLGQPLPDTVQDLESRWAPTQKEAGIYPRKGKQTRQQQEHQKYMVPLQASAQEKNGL

Question: With `CC(C)n1nccc1-c1ncccc1COc1cccc(O)c1C=O` [voxelotor, 2-hydroxy-6-((2-(1-isopropyl-1H-pyrazol-5-yl)pyridin-3-yl)methoxy)benzaldehyde] as the molecule, how does the “inhibition of OAT1” value (OAT1) read?
Answer: not an inhibitor

Question: What about the half-life ([1]; in vivo, plasma, mild hepatic impairment, 1500 mg single oral dose) of the same molecule?
Answer: 71.4 h

Question: And the AUC(0-inf) ([1]; plasma, oral, 600 mg, plasma, severe hepatic impairment (Test), 600 mg, adjusted for dose to 1500 mg, read-out: AUCinf, Geometric LS Mean)?
Answer: 394 µg·h/mL

Question: What about the AUC(0-t) ([1]; plasma, oral, 600 mg, plasma, severe hepatic impairment (Test), 600 mg, adjusted for dose to 1500 mg, read-out: AUCt, Geometric LS Mean) of the same molecule?
Answer: 388 µg·h/mL

Question: What about the Cmax ([1]; plasma, oral, 600 mg, plasma, severe hepatic impairment (Test), 600 mg, adjusted for dose to 1500 mg, read-out: Cmax, Geometric LS Mean) of the same molecule?
Answer: 2900 ng/mL

Question: And the AUC(0-inf) ([1]; plasma, oral, 1500 mg, plasma, mild hepatic impairment (Test), 1500 mg, read-out: AUCinf, Geometric LS Mean)?
Answer: 223 µg·h/mL

Question: And the AUC(0-t) ([1]; plasma, oral, 1500 mg, plasma, mild hepatic impairment (Test), 1500 mg, read-out: AUCt, Geometric LS Mean)?
Answer: 221 µg·h/mL

Question: What about the Cmax ([1]; plasma, oral, 1500 mg, plasma, mild hepatic impairment (Test), 1500 mg, read-out: Cmax, Geometric LS Mean) of the same molecule?
Answer: 2360 ng/mL

Question: What about the AUC(0-inf) ([1]; plasma, oral, 1500 mg, plasma, moderate hepatic impairment (Test), 1500 mg, read-out: AUCinf, Geometric LS Mean) of the same molecule?
Answer: 240 µg·h/mL

Question: And the AUC(0-t) ([1]; plasma, oral, 1500 mg, plasma, moderate hepatic impairment (Test), 1500 mg, read-out: AUCt, Geometric LS Mean)?
Answer: 245 µg·h/mL

Question: What about the Cmax ([1]; plasma, oral, 1500 mg, plasma, moderate hepatic impairment (Test), 1500 mg, read-out: Cmax, Geometric LS Mean) of the same molecule?
Answer: 3030 ng/mL

Question: What about the AUC(0-inf) ([1]; plasma, oral, 1500 mg, plasma, normal hepatic function (Reference), 1500 mg, read-out: AUCinf, Geometric LS Mean) of the same molecule?
Answer: 204 µg·h/mL

Question: What about the AUC(0-t) ([1]; plasma, oral, 1500 mg, plasma, normal hepatic function (Reference), 1500 mg, read-out: AUCt, Geometric LS Mean) of the same molecule?
Answer: 203 µg·h/mL

Question: And the Cmax ([1]; plasma, oral, 1500 mg, plasma, normal hepatic function (Reference), 1500 mg, read-out: Cmax, Geometric LS Mean)?
Answer: 2010 ng/mL

Question: What about the AUC(0-t) ([1]; plasma, po, 600 mg, plasma, severe hepatic impairment, 600 mg single oral dose, adjusted for dose to 1500 mg, read-out: AUC0-96, GM (converted)) of the same molecule?
Answer: 177 µg·h/mL

Question: What about the AUC(0-inf) ([1]; plasma, po, 600 mg, plasma, severe hepatic impairment, 600 mg single oral dose, adjusted for dose to 1500 mg, read-out: AUCinf, GM (converted)) of the same molecule?
Answer: 393 µg·h/mL

Question: And the AUC(0-t) ([1]; plasma, po, 600 mg, plasma, severe hepatic impairment, 600 mg single oral dose, adjusted for dose to 1500 mg, read-out: AUCt, GM (converted))?
Answer: 386 µg·h/mL

Question: What about the Cmax ([1]; plasma, po, 600 mg, plasma, severe hepatic impairment, 600 mg single oral dose, adjusted for dose to 1500 mg, read-out: Cmax, GM (converted)) of the same molecule?
Answer: 2960 ng/mL

Question: And the Vd/F [1, 2]?
Answer: 592 L

Question: What about the half-life [1, 2] of the same molecule?
Answer: 109 h

Question: And the Tmax [1, 2]?
Answer: 4 h

Question: What about the AUC(0-t) ([1]; plasma, po, 1500 mg, plasma, mild hepatic impairment, 1500 mg single oral dose, read-out: AUC0-96, GM (converted)) of the same molecule?
Answer: 143 µg·h/mL

Question: What about the AUC(0-inf) ([1]; plasma, po, 1500 mg, plasma, mild hepatic impairment, 1500 mg single oral dose, read-out: AUCinf, GM (converted)) of the same molecule?
Answer: 224 µg·h/mL

Question: What about the AUC(0-t) ([1]; plasma, po, 1500 mg, plasma, mild hepatic impairment, 1500 mg single oral dose, read-out: AUCt, GM (converted)) of the same molecule?
Answer: 223 µg·h/mL

Question: What about the Cmax ([1]; plasma, po, 1500 mg, plasma, mild hepatic impairment, 1500 mg single oral dose, read-out: Cmax, GM (converted)) of the same molecule?
Answer: 2390 ng/mL

Question: And the Vd/F [1, 3]?
Answer: 674 L

Question: What about the Tmax [1, 3] of the same molecule?
Answer: 4 h

Question: What about the AUC(0-t) ([1]; plasma, po, 1500 mg, plasma, moderate hepatic impairment, 1500 mg single oral dose, read-out: AUC0-96, GM (converted)) of the same molecule?
Answer: 146 µg·h/mL

Question: And the AUC(0-inf) ([1]; plasma, po, 1500 mg, plasma, moderate hepatic impairment, 1500 mg single oral dose, read-out: AUCinf, GM (converted))?
Answer: 244 µg·h/mL

Question: What about the AUC(0-t) ([1]; plasma, po, 1500 mg, plasma, moderate hepatic impairment, 1500 mg single oral dose, read-out: AUCt, GM (converted)) of the same molecule?
Answer: 252 µg·h/mL

Question: What about the Cmax ([1]; plasma, po, 1500 mg, plasma, moderate hepatic impairment, 1500 mg single oral dose, read-out: Cmax, GM (converted)) of the same molecule?
Answer: 2910 ng/mL

Question: What about the Vd/F [1, 4] of the same molecule?
Answer: 789 L

Question: What about the half-life [1, 4] of the same molecule?
Answer: 90 h

Question: And the Tmax [1, 4]?
Answer: 5 h

Question: And the AUC(0-t) ([1]; plasma, po, 1500 mg, plasma, normal hepatic function, 1500 mg single oral dose, read-out: AUC0-96, GM (converted))?
Answer: 120 µg·h/mL

Question: And the AUC(0-inf) ([1]; plasma, po, 1500 mg, plasma, normal hepatic function, 1500 mg single oral dose, read-out: AUCinf, GM (converted))?
Answer: 200 µg·h/mL

Question: What about the AUC(0-t) ([1]; plasma, po, 1500 mg, plasma, normal hepatic function, 1500 mg single oral dose, read-out: AUCt, GM (converted)) of the same molecule?
Answer: 199 µg·h/mL

Question: What about the Cmax ([1]; plasma, po, 1500 mg, plasma, normal hepatic function, 1500 mg single oral dose, read-out: Cmax, GM (converted)) of the same molecule?
Answer: 2010 ng/mL

Question: What about the Vd/F [1, 5] of the same molecule?
Answer: 865 L

Question: And the half-life [1, 5]?
Answer: 80.8 h

Question: What about the Tmax [1, 5] of the same molecule?
Answer: 4 h

Question: And the AUC(0-inf) ([1]; whole blood, oral, 600 mg, whole blood, severe hepatic impairment (Test), 600 mg, adjusted for dose to 1500 mg, read-out: AUCinf, Geometric LS Mean)?
Answer: 13600 µg·h/mL

Question: What about the AUC(0-t) ([1]; whole blood, oral, 600 mg, whole blood, severe hepatic impairment (Test), 600 mg, adjusted for dose to 1500 mg, read-out: AUCt, Geometric LS Mean) of the same molecule?
Answer: 13300 µg·h/mL

Question: What about the Cmax ([1]; whole blood, oral, 600 mg, whole blood, severe hepatic impairment (Test), 600 mg, adjusted for dose to 1500 mg, read-out: Cmax, Geometric LS Mean) of the same molecule?
Answer: 85400 ng/mL

Question: What about the AUC(0-inf) ([1]; whole blood, oral, 1500 mg, whole blood, mild hepatic impairment (Test), 1500 mg, read-out: AUCinf, Geometric LS Mean) of the same molecule?
Answer: 8160 µg·h/mL

Question: What about the AUC(0-t) ([1]; whole blood, oral, 1500 mg, whole blood, mild hepatic impairment (Test), 1500 mg, read-out: AUCt, Geometric LS Mean) of the same molecule?
Answer: 8120 µg·h/mL

Question: And the Cmax ([1]; whole blood, oral, 1500 mg, whole blood, mild hepatic impairment (Test), 1500 mg, read-out: Cmax, Geometric LS Mean)?
Answer: 72900 ng/mL

Question: And the AUC(0-inf) ([1]; whole blood, oral, 1500 mg, whole blood, moderate hepatic impairment (Test), 1500 mg, read-out: AUCinf, Geometric LS Mean)?
Answer: 8230 µg·h/mL

Question: What about the AUC(0-t) ([1]; whole blood, oral, 1500 mg, whole blood, moderate hepatic impairment (Test), 1500 mg, read-out: AUCt, Geometric LS Mean) of the same molecule?
Answer: 8190 µg·h/mL

Question: What about the Cmax ([1]; whole blood, oral, 1500 mg, whole blood, moderate hepatic impairment (Test), 1500 mg, read-out: Cmax, Geometric LS Mean) of the same molecule?
Answer: 64900 ng/mL

Question: What about the AUC(0-inf) ([1]; whole blood, oral, 1500 mg, whole blood, normal hepatic function (Reference), 1500 mg, read-out: AUCinf, Geometric LS Mean) of the same molecule?
Answer: 7150 µg·h/mL

Question: And the AUC(0-t) ([1]; whole blood, oral, 1500 mg, whole blood, normal hepatic function (Reference), 1500 mg, read-out: AUCt, Geometric LS Mean)?
Answer: 7130 µg·h/mL

Question: And the Cmax ([1]; whole blood, oral, 1500 mg, whole blood, normal hepatic function (Reference), 1500 mg, read-out: Cmax, Geometric LS Mean)?
Answer: 61400 ng/mL

Question: And the AUC(0-t) ([1]; whole blood, po, 600 mg, whole blood, severe hepatic impairment, 600 mg single oral dose, adjusted for dose to 1500 mg, read-out: AUC0-96, GM (converted))?
Answer: 6050 µg·h/mL

Question: What about the AUC(0-inf) ([1]; whole blood, po, 600 mg, whole blood, severe hepatic impairment, 600 mg single oral dose, adjusted for dose to 1500 mg, read-out: AUCinf, GM (converted)) of the same molecule?
Answer: 13600 µg·h/mL

Question: And the AUC(0-t) ([1]; whole blood, po, 600 mg, whole blood, severe hepatic impairment, 600 mg single oral dose, adjusted for dose to 1500 mg, read-out: AUCt, GM (converted))?
Answer: 13300 µg·h/mL

Question: What about the Cmax ([1]; whole blood, po, 600 mg, whole blood, severe hepatic impairment, 600 mg single oral dose, adjusted for dose to 1500 mg, read-out: Cmax, GM (converted)) of the same molecule?
Answer: 86600 ng/mL

Source: US20230015823A1, “METHODS OF ADMINISTERING VOXELOTOR” (Global Blood Therapeutics, Inc., priority 2019, published 2023)
